Consider 5 molecules from US20110274651A1, “Noscapine and Noscapine Analogs and Their Use in treating Infectious Diseases by Tubulin Binding Inhibition” (priority 2008, published 2011).

One test concerns vaccinia virus. Nature of the test: Plaque assay of vaccinia virus in BSC-40 cells. In kind it is cell-based.
In test [1] the target is tubulin. Particulars: literature values, refs [18], [12], [43]; read-out: dissociation constant (Kd) binding to tubulin; cited from earlier work.
For test [2], the target named is T1, tubulin.
T1 construct: other: double reciprocal plots; 0-100 μM ligand, 2 μM tubulin, 45 min at
Nature of the test: Tubulin binding assay (fluorescence titration, quenching of intrinsic tubulin fluorescence). Also noted: species or system Mammalian. Particulars: double reciprocal plots; 0-100 μM ligand, 2 μM tubulin, 45 min at 37° C.; read-out: dissociation constant (Kd) binding to tubulin.

Read-outs that look alike come from different tables or passages of the source.

The Kd is the constant that tells how readily two partners part at equilibrium. Take `COc1ccc2c(c1OC)C(=O)O[C@@H]2[C@H]1c2c(c(Br)c3c(c2OC)OCO3)CCN1C` [9-Br-nos, (S)-6,7-dimethoxy-3-((R)-4-methoxy-6-methyl-9-bromo-5,6,7,8-tetrahydro-[1,3]dioxolo[4,5-g]isoquinolin-5-yl)isobenzofuran-1(3H)-one]: the “spread of vaccinia virus in BSC-40 cells” value in the test with vaccinia virus is “inhibited”. In the test on vaccinia virus (25 uM in 0.1% DMSO), the prevention of infection result is reported as “does not prevent infection”. Further, the plaque appearance entry with vaccinia virus (25 uM in 0.1% DMSO, FIG. 1) is “only small “pinpoint” plaques are evident”. In addition, the dissociation constant Kd at tubulin [1] was 54 ± 9.1 µM.

With `COc1ccc2c(c1OC)C(=O)O[C@@H]2[C@H]1c2c(c(Cl)c3c(c2OC)OCO3)CCN1C` [9-Cl-nos], on tubulin [1], the Kd was 40 ± 8 µM.

Turning to `COc1ccc2c(c1OC)C(=O)O[C@@H]2[C@H]1c2c(c(F)c3c(c2OC)OCO3)CCN1C` [9-F-nos, (S)-6,7-dimethoxy-3-((R)-4-methoxy-6-methyl-9-fluoro-5,6,7,8-tetrahydro-[1,3]dioxolo[4,5-g]isoquinolin-5-yl)isobenzofuran-1(3H)-one], on tubulin [2], the dissociation constant Kd came to 81 ± 8 µM.

As to `COc1ccc2c(c1OC)C(=O)O[C@@H]2[C@H]1c2c(c(I)c3c(c2OC)OCO3)CCN1C` [9-I-nos, (S)-6,7-dimethoxy-3-((R)-4-methoxy-6-methyl-9-iodo-5,6,7,8-tetrahydro-[1,3]dioxolo[4,5-g]isoquinolin-5-yl)isobenzofuran-1(3H)-one], the Kd at tubulin [2] stood at 22 ± 4 µM.

Turning to `COc1ccc2c(c1OC)C(=O)O[C@@H]2[C@H]1c2c(cc3c(c2OC)OCO3)CCN1C` [noscapine, (S)-6,7-dimethoxy-3-((R)-4-methoxy-6-methyl-5,6,7,8-tetrahydro-[1,3]dioxolo[4,5-g]isoquinolin-5-yl)isobenzofuran-1(3H)-one], the Kd at tubulin [1] is 144 ± 2.8 µM.
